Data as given in US20230017045A1, “PYRIDINE AND PYRIMIDINE CARBOXYLATE HERBICIDES AND METHODS OF USE THEREOF” (Dow AgroSciences LLC, priority 2017, published 2023).

These compounds were tested on test plant species (assay: Post-emergent herbicidal activity test (greenhouse, foliar spray, visual growth reduction)). Conditions: post-emergence, 336 h, ALOMY: blackgrass (Alopecurus myosuroides), 140 g ai/ha, 14 days after application, read-out: Visual Growth Reduction (%) 14 Days After Application, ALOMY.
Format: in vivo
Procedure, shortened: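 Visual percent injury (0-100) rated 14 d after treatment, relative to nontreated and solvent-blank plants. Test plants at first or second true leaf stage received an overhead track-sprayer application at 187 L/ha. Compounds were formulated in aqueous acetone/DMSO carrier containing crop oil concentrate and X-77 surfactant.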
`O=C(O)c1nc(-c2ccc(C(F)(F)F)nc2)c(Cl)cc1Cl` [F84, 3,5-dichloro-6′-(trifluoromethyl)-[2,3′-bipyridine]-6-carboxylic acid] showed a pest or weed control at 140 g/ha of 0 to 29%.
With `COC(=O)c1nc(-c2ccc(OC(F)F)cc2OC)c(F)cc1Cl` [F161 (F393)] the pest or weed control at 140 g/ha was 0 to 29%.
`COC(=O)c1nc(-c2ccc(C(F)(F)F)cc2Cl)ccc1C#N` [F10, Methyl 6-(2-chloro-4-(trifluoromethyl)phenyl)-3-cyanopicolinate] showed a pest or weed control at 140 g/ha of 0 to 29%.

Same assay, conditions: post-emergence, 336 h, AMARE: redroot pigweed (Amaranthus retroflexus), 140 g ai/ha, 14 days after application, read-out: Visual Growth Reduction (%) 14 Days After Application, AMARE
`O=C(O)c1nc(-c2ccc(C(F)(F)F)nc2)c(Cl)cc1Cl` [F84, 3,5-dichloro-6′-(trifluoromethyl)-[2,3′-bipyridine]-6-carboxylic acid] gave a pest or weed control at 140 g/ha of 0 to 29%.
With `COC(=O)c1nc(-c2ccc(OC(F)F)cc2OC)c(F)cc1Cl` [F161 (F393)] the pest or weed control at 140 g/ha was 95 to 100%.
`COC(=O)c1nc(-c2ccc(C(F)(F)F)cc2Cl)ccc1C#N` [F10, Methyl 6-(2-chloro-4-(trifluoromethyl)phenyl)-3-cyanopicolinate] showed a pest or weed control at 140 g/ha of 30 to 44%.

Same assay, conditions: post-emergence, 336 h, AVEFA: wild oat (Avena fatua), 140 g ai/ha, 14 days after application, read-out: Visual Growth Reduction (%) 14 Days After Application, AVEFA
Work on `O=C(O)c1nc(-c2ccc(C(F)(F)F)nc2)c(Cl)cc1Cl` [F84, 3,5-dichloro-6′-(trifluoromethyl)-[2,3′-bipyridine]-6-carboxylic acid] yielded a pest or weed control at 140 g/ha of 0 to 29%.
`COC(=O)c1nc(-c2ccc(OC(F)F)cc2OC)c(F)cc1Cl` [F161 (F393)] was tested, and the pest or weed control at 140 g/ha was 75 to 84%.
For `COC(=O)c1nc(-c2ccc(C(F)(F)F)cc2Cl)ccc1C#N` [F10, Methyl 6-(2-chloro-4-(trifluoromethyl)phenyl)-3-cyanopicolinate], the pest or weed control at 140 g/ha was 0 to 29%.

Same assay, conditions: post-emergence, 336 h, CHEAL: lambsquarters (Chenopodium album), 140 g ai/ha, 14 days after application, read-out: Visual Growth Reduction (%) 14 Days After Application, CHEAL
`O=C(O)c1nc(-c2ccc(C(F)(F)F)nc2)c(Cl)cc1Cl` [F84, 3,5-dichloro-6′-(trifluoromethyl)-[2,3′-bipyridine]-6-carboxylic acid] was tested, and the pest or weed control at 140 g/ha was 45 to 59%.
Compound `COC(=O)c1nc(-c2ccc(OC(F)F)cc2OC)c(F)cc1Cl` [F161 (F393)] has a pest or weed control at 140 g/ha of 85 to 94%.
`COC(=O)c1nc(-c2ccc(C(F)(F)F)cc2Cl)ccc1C#N` [F10, Methyl 6-(2-chloro-4-(trifluoromethyl)phenyl)-3-cyanopicolinate] was tested, and the pest or weed control at 140 g/ha was 45 to 59%.

Same assay, conditions: post-emergence, 336 h, CIRAR: canada thistle (Cirsium arvense), 140 g ai/ha, 14 days after application, read-out: Visual Growth Reduction (%) 14 Days After Application, CIRAR
`O=C(O)c1nc(-c2ccc(C(F)(F)F)nc2)c(Cl)cc1Cl` [F84, 3,5-dichloro-6′-(trifluoromethyl)-[2,3′-bipyridine]-6-carboxylic acid] showed a pest or weed control at 140 g/ha of 0 to 29%.
With `COC(=O)c1nc(-c2ccc(OC(F)F)cc2OC)c(F)cc1Cl` [F161 (F393)] the pest or weed control at 140 g/ha was 85 to 94%.
For `COC(=O)c1nc(-c2ccc(C(F)(F)F)cc2Cl)ccc1C#N` [F10, Methyl 6-(2-chloro-4-(trifluoromethyl)phenyl)-3-cyanopicolinate], the pest or weed control at 140 g/ha was 30 to 44%.

Same assay, conditions: post-emergence, 336 h, CYPES: yellow nutsedge (Cyperus esculentus), 140 g ai/ha, 14 days after application, read-out: Visual Growth Reduction (%) 14 Days After Application, CYPES
In the case of `O=C(O)c1nc(-c2ccc(C(F)(F)F)nc2)c(Cl)cc1Cl` [F84, 3,5-dichloro-6′-(trifluoromethyl)-[2,3′-bipyridine]-6-carboxylic acid], the pest or weed control at 140 g/ha is reported as 0 to 29%.
In the case of `COC(=O)c1nc(-c2ccc(OC(F)F)cc2OC)c(F)cc1Cl` [F161 (F393)], the pest or weed control at 140 g/ha is reported as 0 to 29%.
Compound `COC(=O)c1nc(-c2ccc(C(F)(F)F)cc2Cl)ccc1C#N` [F10, Methyl 6-(2-chloro-4-(trifluoromethyl)phenyl)-3-cyanopicolinate] has a pest or weed control at 140 g/ha of 45 to 59%.

Same assay, conditions: post-emergence, 336 h, DIGSA: crabgrass (Digitaria sanguinalis), 140 g ai/ha, 14 days after application, read-out: Visual Growth Reduction (%) 14 Days After Application, DIGSA
For `O=C(O)c1nc(-c2ccc(C(F)(F)F)nc2)c(Cl)cc1Cl` [F84, 3,5-dichloro-6′-(trifluoromethyl)-[2,3′-bipyridine]-6-carboxylic acid], the pest or weed control at 140 g/ha was 30 to 44%.
Work on `COC(=O)c1nc(-c2ccc(OC(F)F)cc2OC)c(F)cc1Cl` [F161 (F393)] yielded a pest or weed control at 140 g/ha of 45 to 59%.
`COC(=O)c1nc(-c2ccc(C(F)(F)F)cc2Cl)ccc1C#N` [F10, Methyl 6-(2-chloro-4-(trifluoromethyl)phenyl)-3-cyanopicolinate] showed a pest or weed control at 140 g/ha of 45 to 59%.

Same assay, conditions: post-emergence, 336 h, ECHCG: barnyardgrass (Echinochloa crus-galli), 140 g ai/ha, 14 days after application, read-out: Visual Growth Reduction (%) 14 Days After Application, ECHCG
`O=C(O)c1nc(-c2ccc(C(F)(F)F)nc2)c(Cl)cc1Cl` [F84, 3,5-dichloro-6′-(trifluoromethyl)-[2,3′-bipyridine]-6-carboxylic acid] showed a pest or weed control at 140 g/ha of 0 to 29%.

Same assay, conditions: post-emergence, 336 h, IPOHE: ivy-leaf morning glory (Ipomoea hederacea), 140 g ai/ha, 14 days after application, read-out: Visual Growth Reduction (%) 14 Days After Application, IPOHE
`O=C(O)c1nc(-c2ccc(C(F)(F)F)nc2)c(Cl)cc1Cl` [F84, 3,5-dichloro-6′-(trifluoromethyl)-[2,3′-bipyridine]-6-carboxylic acid] gave a pest or weed control at 140 g/ha of 0 to 29%.

Same assay, conditions: post-emergence, 336 h, KCHSC: kochia (Bassia scoparia), 140 g ai/ha, 14 days after application, read-out: Visual Growth Reduction (%) 14 Days After Application, KCHSC
Work on `O=C(O)c1nc(-c2ccc(C(F)(F)F)nc2)c(Cl)cc1Cl` [F84, 3,5-dichloro-6′-(trifluoromethyl)-[2,3′-bipyridine]-6-carboxylic acid] yielded a pest or weed control at 140 g/ha of 0 to 29%.

Same assay, conditions: post-emergence, 336 h, ORYSA: rice (Oryza sativa), 140 g ai/ha, 14 days after application, read-out: Visual Growth Reduction (%) 14 Days After Application, ORYSA
Compound `O=C(O)c1nc(-c2ccc(C(F)(F)F)nc2)c(Cl)cc1Cl` [F84, 3,5-dichloro-6′-(trifluoromethyl)-[2,3′-bipyridine]-6-carboxylic acid] has a pest or weed control at 140 g/ha of 0 to 29%.

Same assay, conditions: post-emergence, 336 h, SETFA: giant foxtail (Setaria faberi), 140 g ai/ha, 14 days after application, read-out: Visual Growth Reduction (%) 14 Days After Application, SETFA
In the case of `O=C(O)c1nc(-c2ccc(C(F)(F)F)nc2)c(Cl)cc1Cl` [F84, 3,5-dichloro-6′-(trifluoromethyl)-[2,3′-bipyridine]-6-carboxylic acid], the pest or weed control at 140 g/ha is reported as 0 to 29%.

Same assay, conditions: post-emergence, 336 h, SORVU: grain sorghum (Sorghum vulgare), 140 g ai/ha, 14 days after application, read-out: Visual Growth Reduction (%) 14 Days After Application, SORVU
With `O=C(O)c1nc(-c2ccc(C(F)(F)F)nc2)c(Cl)cc1Cl` [F84, 3,5-dichloro-6′-(trifluoromethyl)-[2,3′-bipyridine]-6-carboxylic acid] the pest or weed control at 140 g/ha was 0 to 29%.

Same assay, conditions: post-emergence, 336 h, STEME: common chickweed (Stellaria media), 140 g ai/ha, 14 days after application, read-out: Visual Growth Reduction (%) 14 Days After Application, STEME
Compound `O=C(O)c1nc(-c2ccc(C(F)(F)F)nc2)c(Cl)cc1Cl` [F84, 3,5-dichloro-6′-(trifluoromethyl)-[2,3′-bipyridine]-6-carboxylic acid] has a pest or weed control at 140 g/ha of 0 to 29%.

Same assay, conditions: post-emergence, 336 h, TRZAS: wheat, spring (Triticum aestivum), 140 g ai/ha, 14 days after application, read-out: Visual Growth Reduction (%) 14 Days After Application, TRZAS
In the case of `O=C(O)c1nc(-c2ccc(C(F)(F)F)nc2)c(Cl)cc1Cl` [F84, 3,5-dichloro-6′-(trifluoromethyl)-[2,3′-bipyridine]-6-carboxylic acid], the pest or weed control at 140 g/ha is reported as 0 to 29%.

Same assay, conditions: post-emergence, 336 h, barnyardgrass (Echinochloa crus-galli), 14 Days After Application, 140 g ai/ha, read-out: Visual Growth Reduction (%) ECHCG
In the case of `COC(=O)c1nc(-c2ccc(C(F)(F)F)cc2Cl)ccc1C#N` [F10, Methyl 6-(2-chloro-4-(trifluoromethyl)phenyl)-3-cyanopicolinate], the pest or weed control at 140 g/ha is reported as 0 to 29%.

Same assay, conditions: post-emergence, 336 h, common chickweed (Stellaria media), 14 Days After Application, 140 g ai/ha, read-out: Visual Growth Reduction (%) STEME
Work on `COC(=O)c1nc(-c2ccc(C(F)(F)F)cc2Cl)ccc1C#N` [F10, Methyl 6-(2-chloro-4-(trifluoromethyl)phenyl)-3-cyanopicolinate] yielded a pest or weed control at 140 g/ha of 0 to 29%.

Same assay, conditions: post-emergence, 336 h, giant foxtail (Setaria faberi), 14 Days After Application, 140 g ai/ha, read-out: Visual Growth Reduction (%) SETFA
For `COC(=O)c1nc(-c2ccc(C(F)(F)F)cc2Cl)ccc1C#N` [F10, Methyl 6-(2-chloro-4-(trifluoromethyl)phenyl)-3-cyanopicolinate], the pest or weed control at 140 g/ha was 0 to 29%.

Same assay, conditions: post-emergence, 336 h, ivy-leaf morning glory (Ipomoea hederacea), 14 Days After Application, 140 g ai/ha, read-out: Visual Growth Reduction (%) IPOHE
`COC(=O)c1nc(-c2ccc(C(F)(F)F)cc2Cl)ccc1C#N` [F10, Methyl 6-(2-chloro-4-(trifluoromethyl)phenyl)-3-cyanopicolinate] gave a pest or weed control at 140 g/ha of 60 to 74%.

Same assay, conditions: post-emergence, 336 h, johnsongrass (Sorghum vulgare), 14 Days After Application, 140 g ai/ha, read-out: Visual Growth Reduction (%) SORVU
For `COC(=O)c1nc(-c2ccc(C(F)(F)F)cc2Cl)ccc1C#N` [F10, Methyl 6-(2-chloro-4-(trifluoromethyl)phenyl)-3-cyanopicolinate], the pest or weed control at 140 g/ha was 30 to 44%.

Same assay, conditions: post-emergence, 336 h, kochia (Bassia scoparia), 14 Days After Application, 140 g ai/ha, read-out: Visual Growth Reduction (%) KCHSC
Compound `COC(=O)c1nc(-c2ccc(C(F)(F)F)cc2Cl)ccc1C#N` [F10, Methyl 6-(2-chloro-4-(trifluoromethyl)phenyl)-3-cyanopicolinate] has a pest or weed control at 140 g/ha of 0 to 29%.

Same assay, conditions: post-emergence, 336 h, rice (Oryza sativa), 14 Days After Application, 140 g ai/ha, read-out: Visual Growth Reduction (%) ORYSA
Work on `COC(=O)c1nc(-c2ccc(C(F)(F)F)cc2Cl)ccc1C#N` [F10, Methyl 6-(2-chloro-4-(trifluoromethyl)phenyl)-3-cyanopicolinate] yielded a pest or weed control at 140 g/ha of 0 to 29%.

Same assay, conditions: post-emergence, 336 h, wheat, spring (Triticum aestivum), 14 Days After Application, 140 g ai/ha, read-out: Visual Growth Reduction (%) TRZAS
In the case of `COC(=O)c1nc(-c2ccc(C(F)(F)F)cc2Cl)ccc1C#N` [F10, Methyl 6-(2-chloro-4-(trifluoromethyl)phenyl)-3-cyanopicolinate], the pest or weed control at 140 g/ha is reported as 0 to 29%.
